Here are results for 12 molecules from patent publication US20250032625A1, “HETEROBIFUNCTIONAL MOLECULES AS TEAD INHIBITORS” (Merck Patent GmbH, priority 2021, published 2025).

One assay concerns the target TEAD1 in NCI-H226 cells (Homo sapiens (Human), UniProt P28347). In words: TEAD degradation in NCI-H226 cell line (immunofluorescence). The assay is classed as cell-based. The procedure, abridged: (§1)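 SK-HEP1 and NCI-H226 cells were treated in duplicate for 16 or 24 h at 37 °C with compound (10 points, 1:3, top 30 µM final). After fixation, TEAD1 was immunostained with anti-TEF1 and per-cell fluorescence quantified by high-content imaging. DC50 from curve fitting.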

The target in a further assay is hsTEAD1 (209-426) (Homo sapiens (Human), UniProt P28347). In words: Surface Plasmon Resonance (SPR) assay. The assay is classed as binding. The note with it: Biacore 4000, 15° C., 1:1 Langmuir model, read-out: KD TEAD1 (209-426). On the procedure:
The kinetic and affinity parameters of protein-exemplary compound interactions were evaluated by SPR. hsTEAD1 (209-426) was immobilized onto a CM7 (Series S) sensor chip via the standard amine coupling procedure, at 15° C. Prior to immobilization, the carboxymethylated surface of the chip was activated with 400 mM 1-ethyl-3-(3-dimethylaminopropyl)-carbodiimide and 100 mM N-hydroxysuccinimide for 10 min. hsTEAD1 (209-426) was diluted to 11 μg/mL in 10 mM Bis-Tris at pH 6.5 and immobilized on the activated surface chip for 8 and 10 min, in order to reach 6000 to 9000 response units (RU). The remaining activated carboxymethylated groups were blocked with a 7 min injection of 1 M ethanolamine pH 8.5 after which the surface chip was washed with 0.5% (w/v) sodium dodecyl sulphate and 50 mM glycine. HBS-N, which consists of 10 mM HEPES pH 7.4 and 150 mM NaCl, was used as the background buffer during immobilization. Exemplary compounds were prediluted in DMSO, diluted 1:50 in running buffer (20 mM Tris pH 7.4, 150 mM NaCl, 1 mM DTT, 5 mM MgCl2, 0.1 mM EGTA, 0.05% CHAPS) and injected at ten different concentrations using two-fold dilution series, from 100 μM to 0.2 μM. A DMSO solvent correction (1%-3%) was performed to account for variations in bulk signal and to achieve high-quality data. Interaction analysis cycles consisted of a 240 sec sample injection (30 μL/min; association phase) followed by 600 sec of buffer flow (dissociation phase).
All sensorgrams were processed by first subtracting the binding response recorded from the control surface (reference spot), followed by subtracting of the buffer blank injection from the reaction spot. All datasets were fit to a simple 1:1 Langmuir interaction model to determine the kinetic rate constants, KD. Experiments were performed on a Biacore 4000 (Cytiva, Uppsala, Sweden) at 15° C. and the interactions were evaluated using the provided Biacore 4000 evaluation software.

The next assay concerns the target TEAD1 in SK-HEP1 cells (Homo sapiens (Human), UniProt P28347). In words: TEAD degradation in SK-HEP1 cell line (immunofluorescence). Format: cell-based. Put shortly: as §1
[1] abbreviates: 24 hours, ranges, read-out: DC50 SK-HEP1.
[2] abbreviates: 24 hours, ranges, read-out: DC50 NCI-H226.

Read-outs that look alike come from different tables or passages of the source.

Sequence of hsTEAD1 (209-426) (P28347 209-426): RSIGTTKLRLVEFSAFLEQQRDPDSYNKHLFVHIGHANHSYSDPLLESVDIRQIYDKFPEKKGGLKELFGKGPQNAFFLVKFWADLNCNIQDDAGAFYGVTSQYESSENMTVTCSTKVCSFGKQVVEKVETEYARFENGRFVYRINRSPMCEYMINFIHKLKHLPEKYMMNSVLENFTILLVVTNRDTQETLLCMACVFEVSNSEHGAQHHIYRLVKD
Sequence of TEAD1 in SK-HEP1 cells (P28347 whole entry): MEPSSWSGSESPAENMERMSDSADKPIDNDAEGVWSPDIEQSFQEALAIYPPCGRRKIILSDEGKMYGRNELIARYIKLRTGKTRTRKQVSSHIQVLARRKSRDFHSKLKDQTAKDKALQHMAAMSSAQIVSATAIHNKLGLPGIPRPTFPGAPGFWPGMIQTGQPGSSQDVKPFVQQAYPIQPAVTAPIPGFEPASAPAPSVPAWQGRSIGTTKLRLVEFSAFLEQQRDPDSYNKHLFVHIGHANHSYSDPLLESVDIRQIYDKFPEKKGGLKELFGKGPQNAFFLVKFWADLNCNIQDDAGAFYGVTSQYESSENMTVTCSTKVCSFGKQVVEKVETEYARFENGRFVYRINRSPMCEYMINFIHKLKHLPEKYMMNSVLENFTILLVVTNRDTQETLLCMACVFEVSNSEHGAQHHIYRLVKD
Sequence of TEAD1 in NCI-H226 cells (P28347 whole entry): as above

`Cn1cc2c3cc(C(=O)NCCOCCOCCNC(=O)CCCCNc4cccc5c4CN(C4CCC(=O)NC4=O)C5=O)ccc3n(-c3ccc(C(F)(F)F)cc3)c2n1` (stereo not drawn) [Compound 9, 5-{[2-(2,6-dioxopiperidin-3-yl)-1-oxo-2,3-dihydro-1H-isoindol-4-yl]amino}-N-(2-{2-[2-({2-methyl-8-[4-(trifluoromethyl)phenyl]-2H,8H-pyrazolo[3,4-b]indol-5-yl}formamido)ethoxy]ethoxy}ethyl) pentanamide]: the DC50 was 30000 nM on TEAD1 in NCI-H226 cells (24 h incubation, read-out: DC50 NCI-H226 24 h); 2400 nM on TEAD1 in SK-HEP1 cells (24 h incubation, read-out: DC50 SK-HEP1 24 h); 1000 to 3000 nM on TEAD1 in SK-HEP1 cells (setting [1]). For the same molecule, the Kd on hsTEAD1 (209-426) is 970 nM.

Take `Cn1cc2c3cc(C(=O)NCCOCCOCCNC(=O)CCCNc4cccc5c4CN(C4CCC(=O)NC4=O)C5=O)ccc3n(-c3ccc(C(F)(F)F)cc3)c2n1` (stereo not drawn) [Compound 14, 4-{[2-(2,6-dioxopiperidin-3-yl)-1-oxo-2,3-dihydro-1H-isoindol-4-yl]amino}-N-(2-{2-[2-({2-methyl-8-[4-(trifluoromethyl)phenyl]-2H,8H-pyrazolo[3,4-b]indol-5-yl}formamido)ethoxy]ethoxy}ethyl) butanamide]: at hsTEAD1 (209-426), the Kd came to 482 nM.

For `CN1C(=O)CCC(N2C(=O)c3cccc(NC(=O)COCCOCCOCCOCCNC(=O)c4ccc5c(c4)c4cn(C)nc4n5-c4ccc(C(F)(F)F)cc4)c3C2=O)C1=O` (stereo not drawn) [Compound 36, N-[2-(1-methyl-2,6-dioxopiperidin-3-yl)-1,3-dioxo-2,3-dihydro-1H-isoindol-4-yl]-14-({2-methyl-8-[4-(trifluoromethyl)phenyl]-2H,8H-pyrazolo[3,4-b]indol-5-yl}formamido)-3,6,9,12-tetraoxatetradecanamide], the Kd on hsTEAD1 (209-426) came to 980 nM.

In the case of `Cc1ncsc1-c1ccc(CNC(=O)[C@@H]2C[C@@H](O)CN2C(=O)[C@@H](NC(=O)CCOCCC(=O)NCCOCCOCCNC(=O)c2ccc3c(c2)c2cn(C)nc2n3-c2ccc(C(F)(F)F)cc2)C(C)(C)C)cc1` [Compound 61, (2S,4R)-1-[(2S)-3,3-dimethyl-2-(3-{2-[(2-{2-[2-({2-methyl-8-[4-(trifluoro-methyl)phenyl]-2H,8H-pyrazolo[3,4-b]indol-5-yl}formamido)-ethoxy]ethoxy}ethyl)carbamoyl]ethoxy}propanamido)butanoyl]-4-hydroxy-N-{[4-(4-methyl-1,3-thiazol-5-yl)phenyl]methyl}pyrrolidine-2-carboxamide], the DC50 at TEAD1 in NCI-H226 cells (setting [2]) and at TEAD1 in SK-HEP1 cells (setting [1]) was 3000 to 9000 nM in each case.

`CCNC(=O)[C@H](Cc1ccccc1)NC(=O)[C@@H]1CCCN1C(=O)[C@@H](NC(=O)[C@H](C)NCCCCCCNC(=O)c1ccc2c(c1)c1cn(C)nc1n2-c1ccc(C(F)(F)F)cc1)C1CCCCC1` [Compound 73, (2S)-2-{[(2S)-1-[(2S)-2-cyclohexyl-2-[(2S)-2-{[6-({2-methyl-8-[4-(trifluoro-methyl)phenyl]-2H,8H-pyrazolo[3,4-b]indol-5-yl}formamido)hexyl]amino}-propanamido]acetyl]pyrrolidin-2-yl]formamido}-N-ethyl-3-phenylpropan-amide]: the DC50 on TEAD1 in NCI-H226 cells (setting [2]) lay in the range of 9000 to 30000 nM; on TEAD1 in SK-HEP1 cells (setting [1]), 3000 to 9000 nM.

As to `Cc1ncsc1-c1ccc(CNC(=O)[C@@H]2C[C@@H](O)CN2C(=O)[C@@H](NC(=O)COCCCOCCOCCNC(=O)c2ccc3c(c2)c2cn(C)nc2n3-c2ccc(C(F)(F)F)cc2)C(C)(C)C)cc1` [Compound 74, (2S,4R)-1-[(2S)-3,3-dimethyl-2-[2-(3-{2-[2-({2-methyl-8-[4-(trifluoro-methyl)phenyl]-2H,8H-pyrazolo[3,4-b]indol-5-yl}formamido)ethoxy]-ethoxy}propoxy)acetamido]butanoyl]-4-hydroxy-N-{[4-(4-methyl-1,3-thiazol-5-yl)phenyl]methyl}pyrrolidine-2-carboxamide], the figures for the DC50 at TEAD1 in NCI-H226 cells (setting [2]) and on TEAD1 in SK-HEP1 cells (setting [1]) were 1000 to 3000 nM and 100 to 1000 nM, respectively.

Turning to `CN(CCOCCOCCOCCOCCNC(=O)c1ccc2c(c1)c1cn(C)nc1n2-c1ccc(C(F)(F)F)cc1)c1cccc2c1C(=O)N(C1CCC(=O)NC1=O)C2=O` (stereo not drawn) [Compound 80, N-{2-[2-(2,6-dioxopiperidin-3-yl)-1,3-dioxo-2,3-dihydro-1H-isoindol-4-yl]-5,8,11,14-tetraoxa-2-azahexadecan-16-yl}-2-methyl-8-[4-(trifluoromethyl)phenyl]-2H,8H-pyrazolo[3,4-b]indole-5-carboxamide], the half-maximal degradation concentration (DC50) at TEAD1 in NCI-H226 cells (setting [2]) is 100 to 1000 nM; on TEAD1 in SK-HEP1 cells (setting [1]), less than 100 nM.

As for `Cc1ncsc1-c1ccc([C@H](C)NC(=O)[C@@H]2C[C@@H](O)CN2C(=O)[C@@H](NC(=O)CCCCCc2cn(CCCCOCCNC(=O)c3ccc4c(c3)c3cn(C)nc3n4-c3ccc(C(F)(F)F)cc3)nn2)C(C)(C)C)cc1` [Compound 82, (2S,4R)-1-[(2S)-3,3-dimethyl-2-[6-(1 {4-[2-({2-methyl-8-[4-(trifluoro-methyl)phenyl]-2H,8H-pyrazolo[3,4-b]indol-5-yl}formamido)ethoxy]butyl}-1H-1,2,3-triazol-4-yl)hexanamido]butanoyl]-4-hydroxy-N-[(1S)-1-[4-(4-methyl-1,3-thiazol-5-yl)phenyl]ethyl]pyrrolidine-2-carboxamide], the DC50 on TEAD1 in NCI-H226 cells (setting [2]) and at TEAD1 in SK-HEP1 cells (setting [1]) was 100 to 1000 nM throughout.

Turning to `Cn1cc2c3cc(C(=O)NCCOCCOCCOCCOCCOCCOCCNc4cccc5c4C(=O)N(C4CCC(=O)NC4=O)C5=O)ccc3n(-c3ccc(C(F)(F)F)cc3)c2n1` (stereo not drawn) [Compound 87, N-(20-{[2-(2,6-dioxopiperidin-3-yl)-1,3-dioxo-2,3-dihydro-1H-isoindol-4-yl]amino}-3,6,9,12,15,18-hexaoxaicosan-1-yl)-2-methyl-8-[4-(trifluoromethyl)phenyl]-2H,8H-pyrazolo[3,4-b]indole-5-carboxamide], the DC50 at TEAD1 in NCI-H226 cells (setting [2]) and at TEAD1 in SK-HEP1 cells (setting [1]) was less than 100 nM in each case.

Regarding `Cn1cc2c3cc(C(=O)NCCOCCOCCOCCOCCOc4ccc5c(c4)C(=O)N(C4CCC(=O)NC4=O)C5=O)ccc3n(-c3ccc(C(F)(F)F)cc3)c2n1` (stereo not drawn) [Compound 88, N-(14-{[2-(2,6-dioxopiperidin-3-yl)-1,3-dioxo-2,3-dihydro-1H-isoindol-5-yl]oxy}-3,6,9,12-tetraoxatetradecan-1-yl)-2-methyl-8-[4-(trifluoromethyl)phenyl]-2H,8H-pyrazolo[3,4-b]indole-5-carboxamide], the DC50 at TEAD1 in NCI-H226 cells (setting [2]) and at TEAD1 in SK-HEP1 cells (setting [1]) was 100 to 1000 nM throughout.

For the molecule `Cn1nc2c3cc(C(=O)NCCOCCOCCOCCOCCNc4cccc5c4C(=O)N(C4CCC(=O)NC4=O)C5=O)ccc3n([C@H]3CC[C@H](C(F)(F)F)CC3)c2n1` (stereo partly drawn) [Compound 95, N-(14-{[2-(2,6-dioxopiperidin-3-yl)-1,3-dioxo-2,3-dihydro-1H-isoindol-4-yl]amino}-3,6,9,12-tetraoxatetradecan-1-yl)-2-methyl-4-[(1r,4r)-4-(trifluoromethyl)cyclohexyl]-2H,4H-[1,2,3]triazolo[4,5-b]indole-7-carboxamide], the DC50 on TEAD1 in NCI-H226 cells (setting [2]) and at TEAD1 in SK-HEP1 cells (setting [1]) was 100 to 1000 nM throughout.

Turning to `Cn1cc2c3cc(C(=O)NCCOCCOCCOCCOCCNc4cccc5c4C(=O)N(C4CCC(=O)NC4=O)C5=O)ccc3n(CC3CCC(C(F)(F)F)CC3)c2n1` (stereo not drawn) [Compound 99, N-(14-{[2-(2,6-dioxopiperidin-3-yl)-1,3-dioxo-2,3-dihydro-1H-isoindol-4-yl]amino}-3,6,9,12-tetraoxatetradecan-1-yl)-2-methyl-8-{[4-(trifluoromethyl)cyclohexyl]methyl}-2H,8H-pyrazolo[3,4-b]indole-5-carboxamide], the DC50 at TEAD1 in NCI-H226 cells (setting [2]) was 100 to 1000 nM; at TEAD1 in SK-HEP1 cells (setting [1]), less than 100 nM.

A word on the DC50: it is the concentration giving 50% degradation. Broadly, the Kd is the equilibrium constant for the complex coming apart.
